Source: patent US20250250230A1, “HETEROCYCLIC COMPOUND” (TAKEDA PHARMACEUTICAL COMPANY LIMITED, priority 2022, published 2025)

These molecules were tested against T1, human orexin type 2 receptor (Homo sapiens, UniProt O43614) (assay: Measurement of orexin type 2 receptor agonist activity (calcium fluorescence, Fluo-4 AM, FDSS)). Conditions: test compound 3 μM; CHO cells expressing human OX2 receptor; DMSO = 0%, orexin A (human) = 100%.
T1 construct: expressed in transfected cells
T1 sequence (O43614 1-444): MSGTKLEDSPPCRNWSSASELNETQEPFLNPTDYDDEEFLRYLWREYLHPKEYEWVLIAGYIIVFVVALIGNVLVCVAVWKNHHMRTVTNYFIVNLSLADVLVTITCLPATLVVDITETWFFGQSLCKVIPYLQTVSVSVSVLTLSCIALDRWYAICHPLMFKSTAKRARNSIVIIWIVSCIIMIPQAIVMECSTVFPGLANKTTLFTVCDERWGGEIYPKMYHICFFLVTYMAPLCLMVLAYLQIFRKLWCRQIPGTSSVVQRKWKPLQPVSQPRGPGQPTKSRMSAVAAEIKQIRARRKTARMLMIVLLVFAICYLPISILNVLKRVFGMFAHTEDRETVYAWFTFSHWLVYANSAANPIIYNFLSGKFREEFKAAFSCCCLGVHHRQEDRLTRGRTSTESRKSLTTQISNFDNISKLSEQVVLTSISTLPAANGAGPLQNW
Type: cell-based
Method in brief: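 CHO-K1 cells stably expressing human OX2R were loaded with Fluo-4 AM (30 min 37 °C, 30 min RT) in HEPES-buffered HBSS with 0.1% BSA and probenecid. Calcium fluorescence was followed on FDSS for 2 min after compound addition; activity normalised to DMSO (0%) and 10 nM orexin A (100%).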

Row | Compound | OX2R agonist activity (3 μM, %)
1 | CN(C)S(=O)(=O)NC1CCCCN(C(=O)C2CC2c2ccccc2-c2c(F)cccc2F)C1 (racemic) [Example 162, a mixture of rac-N′-{(3R)-1-[(1R,2R)-2-(2′,6′-difluoro[1,1′-biphenyl]-2-yl)cyclopropane-1-carbonyl]azepan-3-yl}-N,N-dimethylsulfuric diamide and rac-N′-{(3S)-1-[(1R,2R)-2-(2′,6′-difluoro[1,1′-biphenyl]-2-yl)cyclopropane-1-carbonyl]azepan-3-yl}-N,N-dimethylsulfuric diamide] | 106%
2 | CN(C)S(=O)(=O)NC1CCCN(C(=O)C2CC2c2ccccc2-c2c(F)cccc2F)C1 (racemic) [Example 164, a mixture of rac-N′-{(3R)-1-[(1R,2R)-2-(2′,6′-difluoro[1,1′-biphenyl]-2-yl)cyclopropane-1-carbonyl]piperidin-3-yl}-N,N-dimethylsulfuric diamide and rac-N′-{(3S)-1-[(1R,2R)-2-(2′,6′-difluoro[1,1′-biphenyl]-2-yl)cyclopropane-1-carbonyl]piperidin-3-yl}-N,N-dimethylsulfuric diamide] | 104%
3 | Cc1ccc(C2CC2C(=O)N2CCCC(NS(C)(=O)=O)C2)c(-c2c(F)cccc2F)c1 (racemic) [Example 166, a mixture of rac-N-{(3R)-1-[(1R,2R)-2-(2′,6′-difluoro-5-methyl[1,1′-biphenyl]-2-yl)cyclopropane-1-carbonyl]piperidin-3-yl}methanesulfonamide and rac-N-{(3S)-1-[(1R,2R)-2-(2′,6′-difluoro-5-methyl[1,1′-biphenyl]-2-yl)cyclopropane-1-carbonyl]piperidin-3-yl}methanesulfonamide] | 110%
4 | Cc1ccc(C2CC2C(=O)N2CCCC(NS(C)(=O)=O)CC2)c(-c2c(F)cccc2F)c1 (racemic) [Example 167, a mixture of rac-N-{(4R)-1-[(1R,2R)-2-(2′,6′-difluoro-5-methyl[1,1′-biphenyl]-2-yl)cyclopropane-1-carbonyl]azepan-4-yl}methanesulfonamide and rac-N-{(4S)-1-[(1R,2R)-2-(2′,6′-difluoro-5-methyl[1,1′-biphenyl]-2-yl)cyclopropane-1-carbonyl]azepan-4-yl}methanesulfonamide] | 96%
5 | CS(=O)(=O)NC1CCN(C(=O)C2CC2c2c(F)cccc2-c2ccccc2F)C1 (racemic) [Example 188, a mixture of rac-N-{(3R)-1-[(1R,2R)-2-(2′,3-difluoro[1,1′-biphenyl]-2-yl)cyclopropane-1-carbonyl]pyrrolidin-3-yl}methanesulfonamide and rac-N-{(3S)-1-[(1R,2R)-2-(2′,3-difluoro[1,1′-biphenyl]-2-yl)cyclopropane-1-carbonyl]pyrrolidin-3-yl}methanesulfonamide] | 86%
6 | CS(=O)(=O)NC1CCCN(C(=O)C2CC2c2ncccc2-c2c(F)cccc2F)C1 (racemic) [Example 189, a mixture of rac-N-[(3R)-1-{(1R,2R)-2-[3-(2,6-difluorophenyl)pyridin-2-yl]cyclopropane-1-carbonyl}piperidin-3-yl]methanesulfonamide and rac-N-[(3S)-1-{(1R,2R)-2-[3-(2,6-difluorophenyl)pyridin-2-yl]cyclopropane-1-carbonyl}piperidin-3-yl]methanesulfonamide] | 67%
7 | CCS(=O)(=O)NCC1CCN1C(=O)C1CC1c1ccccc1-c1c(F)cccc1F (racemic) [Example 203, a mixture of rac-N-({(2R)-1-[(1R,2R)-2-(2′,6′-difluoro[1,1′-biphenyl]-2-yl)cyclopropane-1-carbonyl]azetidin-2-yl}methyl)ethanesulfonamide and rac-N-({(2S)-1-[(1R,2R)-2-(2′,6′-difluoro[1,1′-biphenyl]-2-yl)cyclopropane-1-carbonyl]azetidin-2-yl}methyl)ethanesulfonamide] | 94%
8 | CN(C)S(=O)(=O)NCC1CCN1C(=O)C1CC1c1ccccc1-c1c(F)cccc1F (racemic) [Example 204, a mixture of rac-N′-({(2R)-1-[(1R,2R)-2-(2′,6′-difluoro[1,1′-biphenyl]-2-yl)cyclopropane-1-carbonyl]azetidin-2-yl}methyl)-N,N-dimethylsulfuric diamide and rac-N′-({(2S)-1-[(1R,2R)-2-(2′,6′-difluoro[1,1′-biphenyl]-2-yl)cyclopropane-1-carbonyl]azetidin-2-yl}methyl)-N,N-dimethysulfuric diamide] | 96%
9 | O=C(C1CC1c1ccccc1-c1c(F)cccc1F)N1CCC1CNS(=O)(=O)C1CC1 (racemic) [Example 205, a mixture of rac-N-({(2R)-1-[(1R,2R)-2-(2′,6′-difluoro[1,1′-biphenyl]-2-yl)cyclopropane-1-carbonyl]azetidin-2-yl}methyl)cyclopropanesulfonamide and rac-N-({(2S)-1-[(1R,2R)-2-(2′,6′-difluoro[1,1′-biphenyl]-2-yl)cyclopropane-1-carbonyl]azetidin-2-yl}methyl)cyclopropanesulfonamide] | 78%
10 | CS(=O)(=O)NC1CCCN(C(=O)C2CC2c2cnccc2-c2c(F)cccc2F)CC1 (racemic) [Example 206, a mixture of rac-N-[(4R)-1-{(1R,2R)-2-[4-(2,6-difluorophenyl)pyridin-3-yl]cyclopropane-1-carbonyl}azepan-4-yl]methanesulfonamide and rac-N-[(4S)-1-{(1R,2R)-2-[4-(2,6-difluorophenyl)pyridin-3-yl]cyclopropane-1-carbonyl}azepan-4-yl]methanesulfonamide] | 87%
11 | CS(=O)(=O)NC1CCN(C(=O)C2CC2c2ccc(F)cc2-c2ccccc2F)C1 (racemic) [Example 208, a mixture of rac-N-{(3R)-1-[(1R,2R)-2-(2′,5-difluoro[1,1′-biphenyl]-2-yl)cyclopropane-1-carbonyl]pyrrolidin-3-yl}methanesulfonamide and rac-N-{(3S)-1-[(1R,2R)-2-(2′,5-difluoro[1,1′-biphenyl]-2-yl)cyclopropane-1-carbonyl]pyrrolidin-3-yl}methanesulfonamide] | 78%
12 | Cc1ccc(C2CC2C(=O)N2CCC(NS(C)(=O)=O)C2)c(-c2ccccc2F)c1 (racemic) [Example 209, a mixture of rac-N-{(3R)-1-[(1R,2R)-2-(2′-fluoro-5-methyl[1,1′-biphenyl]-2-yl)cyclopropane-1-carbonyl]pyrrolidin-3-yl}methanesulfonamide and rac-N-{(3S)-1-[(1R,2R)-2-(2′-fluoro-5-methyl[1,1′-biphenyl]-2-yl)cyclopropane-1-carbonyl]pyrrolidin-3-yl}methanesulfonamide] | 95%

The remaining lines, values ahead:

Row | OX2R agonist activity (3 μM, %) | Compound
13 | 57% | CC1CCN(C(=O)C2CC2c2ccccc2-c2c(F)cccc2F)CC1NS(C)(=O)=O (racemic) [Example 185, a mixture of rac-N-{(3R,4R)-1-[(1R,2R)-2-(2′,6′-difluoro[1,1′-biphenyl]-2-yl)cyclopropane-1-carbonyl]-4-methylpiperidin-3-yl}methanesulfonamide and rac-N-{(3S,4S)-1-[(1R,2R)-2-(2′,6′-difluoro[1,1′-biphenyl]-2-yl)cyclopropane-1-carbonyl]-4-methylpiperidin-3-yl}methanesulfonamide]
14 | 101% | CC1CCN(C(=O)C2CC2c2ccccc2-c2c(F)cccc2F)CCC1NS(C)(=O)=O (racemic) [Example 186]
15 | 106% | O=C(C1CC1c1ccccc1-c1c(F)cccc1F)N1CC[C@H](NS(=O)(=O)CF)C1 (mixture of isomers) [Example 202, a mixture of rac-N-{(3S)-1-[(1R,2R)-2-(2′,6′-difluoro[1,1′-biphenyl]-2-yl)cyclopropane-1-carbonyl]pyrrolidin-3-yl}-1-fluoromethanesulfonamide and N-{(3S)-1-[(1S,2S)-2-(2′,6′-difluoro[1,1′-biphenyl]-2-yl)cyclopropane-1-carbonyl]pyrrolidin-3-yl}-1-fluoromethanesulfonamide]
16 | 91% | CS(=O)(=O)NC1CCN(C(=O)C2CC2c2ccccc2-c2c(F)cccc2F)CCC1(F)F (racemic) [Example 212, a mixture of rac-N-{(4R)-1-[(1R,2R)-2-(2′,6′-difluoro[1,1′-biphenyl]-2-yl)cyclopropane-1-carbonyl]-5,5-difluoroazepan-4-yl}methanesulfonamide and rac-N-{(4S)-1-[(1R,2R)-2-(2′,6′-difluoro[1,1′-biphenyl]-2-yl)cyclopropane-1-carbonyl]-5,5-difluoroazepan-4-yl}methanesulfonamide]
17 | 83% | CC1CN(C(=O)C2CC2c2ccccc2-c2c(F)cccc2F)CCCC1NS(C)(=O)=O (racemic) [Example 217]
18 | 96% | CS(=O)(=O)NC1COCCN(C(=O)C2CC2c2ccccc2-c2c(F)cccc2F)C1 (racemic) [Example 219, a mixture of rac-N-{(6R)-1-[(1R,2R)-2-(2′,6′-difluoro[1,1′-biphenyl]-2-yl)cyclopropane-1-carbonyl]-1,4-oxazepan-6-yl}methanesulfonamide and rac-N-{(6S)-4-[(1R,2R)-2-(2′,6′-difluoro[1,1′-biphenyl]-2-yl)cyclopropane-1-carbonyl]-1,4-oxazepan-6-yl}methanesulfonamide]
